Results taken from the supplement of paper PMC10307832.

Assays:
Assay in all cases: relative viability (nuclei count vs DMSO), 5 days (fraction); higher = more cells survive
[1] = compound: CC1=CC=C(C=C1)C(=O)CN2C3=C(CCCC3)SC2=N [Pifithrin_alpha] + CCNC(=O)c1noc(-c2cc(C(C)C)c(O)cc2O)c1-c1ccc(CN2CCOCC2)cc1 [Luminespib] (partner 0.01 µM)
Method in brief: (§1)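 Five library-drug doses in √10 steps were combined with a fixed anchor-drug dose, or a single drug was given alone, by pin tool to lung cancer cell lines in 1536-well plates the day after seeding. Nuclei were stained and counted after 5 days. Relative viability is the nuclei count in treated wells over that in vehicle wells, taken as the median of duplicate plates.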

Bemcentinib + Pictilisib = compound: Nc1nc(Nc2ccc3c(c2)CC[C@@H](N2CCCC2)CC3)nn1-c1cc2c(nn1)-c1ccccc1CCC2 [Bemcentinib] + CS(=O)(=O)N1CCN(Cc2cc3nc(-c4cccc5[nH]ncc45)nc(N4CCOCC4)c3s2)CC1 [Pictilisib] (partner 1 µM)
Method in brief: as §1

Axitinib + Vorinostat = compound: CNC(=O)c1ccccc1Sc1ccc2c(/C=C/c3ccccn3)n[nH]c2c1 [Axitinib] + O=C(CCCCCCC(=O)Nc1ccccc1)NO [Vorinostat] (partner 1 µM)
Method in brief: as §1

Bemcentinib + Vorinostat = compound: Nc1nc(Nc2ccc3c(c2)CC[C@@H](N2CCCC2)CC3)nn1-c1cc2c(nn1)-c1ccccc1CCC2 [Bemcentinib] + O=C(CCCCCCC(=O)Nc1ccccc1)NO [Vorinostat] (partner 1 µM)
Method in brief: as §1

Row | Cell Line | relative viability ([1]; first compound 1 µM) | relative viability ([1]; first compound 3.162 µM) | relative viability ([1]; first compound 10 µM) | relative viability ([1]; first compound 31.62 µM) | relative viability ([1]; first compound 100 µM) | relative viability (Bemcentinib + Pictilisib; first compound 0.04 µM) | relative viability (Bemcentinib + Pictilisib; first compound 0.1265 µM) | relative viability (Bemcentinib + Pictilisib; first compound 0.4 µM) | relative viability (Bemcentinib + Pictilisib; first compound 1.265 µM) | relative viability (Bemcentinib + Pictilisib; first compound 4 µM) | relative viability (Axitinib + Vorinostat; first compound 0.005 µM) | relative viability (Axitinib + Vorinostat; first compound 0.01581 µM) | relative viability (Axitinib + Vorinostat; first compound 0.05 µM) | relative viability (Axitinib + Vorinostat; first compound 0.1581 µM) | relative viability (Axitinib + Vorinostat; first compound 0.5 µM) | relative viability (Bemcentinib + Vorinostat; first compound 0.04 µM) | relative viability (Bemcentinib + Vorinostat; first compound 0.1265 µM) | relative viability (Bemcentinib + Vorinostat; first compound 0.4 µM) | relative viability (Bemcentinib + Vorinostat; first compound 1.265 µM) | relative viability (Bemcentinib + Vorinostat; first compound 4 µM)
1 | NCI-H2126 | 0.751 | 0.956 | 0.783 | 0.709 | 0.72 | 0.475 | 0.483 | 0.531 | 0.485 | 0.485 | 0.828 | 0.819 | 0.801 | 0.8 | 0.724 | 0.76 | 0.787 | 0.791 | 0.812 | 0.889
2 | NCI-H2170 | 0.849 | 0.53 | 0.742 | 0.542 | 0.705 | 0.267 | 0.324 | 0.352 | 0.259 | 0.311 | 0.898 | 0.85 | 0.896 | 0.739 | 0.799 | 0.732 | 0.855 | 0.992 | 0.745 | 0.897
3 | NCI-H2228 | 0.145 | 0.15 | 0.178 | 0.149 | 0.124 | – | 0.444 | 0.479 | 0.535 | 0.343 | 0.818 | 0.618 | 0.605 | 0.506 | 0.885 | 0.574 | 0.878 | 0.763 | 0.749 | 0.756
4 | NCI-H2347 | 0.921 | 0.541 | 0.392 | 0.288 | 0.254 | 0.511 | 0.488 | 0.708 | 0.82 | 0.649 | 0.638 | 0.55 | 0.513 | 0.664 | 0.619 | 0.544 | 0.596 | 0.718 | 0.67 | 0.575
5 | NCI-H2405 | 0.757 | 0.571 | 0.536 | 0.668 | 0.515 | 0.392 | 0.513 | 0.415 | 0.517 | 0.509 | 1.01 | 1.03 | 1.18 | 0.953 | 1.13 | 0.991 | 1.07 | 1.1 | 1.08 | 1.06
6 | NCI-H3122 | 0.0988 | 0.106 | 0.0966 | – | 0.065 | 0.234 | 0.62 | 0.579 | 0.699 | 0.646 | 0.914 | 1.06 | 1.05 | 0.888 | 1.02 | 0.548 | 1.07 | 1.11 | 1.06 | 0.983
7 | PC-3 [JPC-3] | 0.74 | 0.779 | 0.63 | 0.635 | 0.587 | 0.724 | 0.933 | 0.802 | 0.764 | 0.732 | 0.787 | – | 0.94 | 0.758 | 0.857 | 0.898 | 0.735 | 0.784 | 0.725 | 0.752
8 | PC-14 | 0.134 | 0.147 | 0.149 | 0.0887 | 0.0663 | 0.651 | 0.792 | 0.628 | 0.509 | 0.704 | 0.792 | 0.336 | 0.702 | 0.643 | 1.06 | 0.681 | 0.696 | 0.979 | 0.83 | 0.664
9 | RERF-LC-KJ | 1.3 | 1.25 | 0.959 | 0.512 | 0.44 | 0.535 | 0.575 | 0.652 | 0.562 | 0.572 | 0.703 | 0.648 | 0.725 | 0.705 | 0.803 | 0.699 | 0.732 | 0.713 | 0.635 | 0.65
10 | SK-LU-1 | 0.216 | 0.188 | 0.213 | – | 0.165 | 0.557 | 0.572 | 0.619 | 0.587 | 0.679 | 0.805 | 0.835 | 0.808 | 0.817 | 0.959 | 0.801 | 0.762 | 0.883 | 0.887 | 0.746
11 | SK-MES-1 | 0.644 | 0.698 | 0.478 | 0.262 | 0.286 | 0.303 | 0.379 | 0.404 | 0.361 | 0.374 | 1.1 | 1.12 | 1.25 | 1.02 | 1.27 | 1.1 | 1.38 | 1.17 | 1.23 | 1.24
12 | SW 1573 | 0.245 | 0.214 | 0.188 | – | 0.175 | 0.409 | 0.532 | 0.618 | 0.488 | 0.494 | 0.735 | 0.789 | 0.985 | 0.741 | 0.783 | 0.662 | 0.785 | 0.873 | 0.879 | 0.765
13 | UMC-11 | 0.98 | 1.22 | 1.36 | 1.08 | 1.48 | 0.615 | 0.929 | 0.902 | 0.585 | 0.85 | 0.323 | 0.339 | 0.401 | 0.408 | 0.36 | 0.387 | 0.359 | 0.344 | 0.321 | 0.376
